The text below walks through data of the NIST ThermoML archive (doi:10.1021/je050013y).

For data set [1] the following is noted: 293.15 K; 101.33 kPa; Liquid.
A short description of data set [2]: refractive index (Na D-line) (dimensionless). The conditions noted are these: 293.15 K; 101.33 kPa; Liquid; Standard Abbe refractometry.

Molecules are shown by their SMILES. Numbers after ± are expanded uncertainties.

On to `COC(C)(C)OC` [3,3-dimethyl-2,4-dioxapentane], for which the mass density (in general, the mass of a sample divided by its volume) in data set [1] amounted to 840.2 ± 4.5 kg/m3. Besides, the refractive index (commonly a measure of how strongly the sample bends light) in data set [2] amounted to 1.378 ± 0.0007.

In the case of `CC(C)=O` [acetone], the mass density in data set [1] stood at 784.6 ± 3 kg/m3. Besides, in data set [2], the refractive index worked out at 1.3589 ± 0.0007.

In the case of `CO` [methanol], the mass density in data set [1] was determined as 786.5 ± 0.3 kg/m3. Besides, the refractive index in data set [2] was 1.3289 ± 0.0007.
